Laboratory results taken from patent US4371537A, “Sulfur-substituted phenoxypyridines having antiviral activity” (The Dow Chemical Company, priority 1981, dated 1983).
In brackets after ≈: the same amount, converted by molar mass.

Legend:
[1] = Cytotoxicity in tissue culture testing (HeLa monolayers); format: cell-based; conditions: human; HeLa cells; observed at 48 and 72 hours post-treatment; read-out: Cytotoxicity: concentration of the compound found to be toxic to the cell
Procedure: (§1) Monolayered HeLa cells in 16 millimeter (mm) tissue culture dishes were treated with 1 ml of culture medium (Eagles medium supplemented with fetal calf serum) containing subject compound at an appropriate concentration or containing no compound at all. Culture media such as those described herein are more fully described in standard texts, as for example, Kuchler's Biochemical Methods in Cell Culture and Virology, Dowden, Hutchinson and Ross, Inc., Stroudsberg, PA (1977). Following treatment, cells were challenged with 0.05 ml of rhinovirus type 1A (RV-1A), rhinovirus type 2 (RV-2) or Coxsackie A21 virus (Cox A21) in culture medium. Some of the compounds were also tested against rhinovirus type 5 (RV-5), rhinovirus type 8 (RV-8) or rhinovirus type 64 (RV-64). Cell controls received no viruses.
^1 Cytotoxicity figures represent the concentration of the compound, […]

[2] = test system: rhinovirus type 1A (RV-1A); assay: Tissue culture testing, rhinovirus type 1A in HeLa cells; format: cell-based; conditions: Enterovirus, 48 and 72 hours, NA = not active at the standard test conditions, read-out: RV-1A: lowest concentration of the compound necessary to cause a 50 percent reduction in cytopathic effect
Procedure: as §1
(§2) ^2 Lowest concentration of the compound (μg/ml) necessary to cause

[3] = test system: rhinovirus type 2 (RV-2); assay: Tissue culture testing, rhinovirus type 2 in HeLa cells; format: cell-based; conditions: Enterovirus, 48 and 72 hours, NA = not active at the standard test conditions, read-out: RV-2: lowest concentration of the compound necessary to cause a 50 percent reduction in cytopathic effect
Procedure: as §1, §2

[4] = test system: Coxsackie A21 virus (Cox A21); assay: Tissue culture testing, Coxsackie A21 virus in HeLa cells; format: cell-based; conditions: 48 and 72 hours, NA = not active at the standard test conditions, read-out: Cox A21: lowest concentration of the compound necessary to cause a 50 percent reduction in cytopathic effect
Procedure: as §1, §2

[5] = test system: rhinovirus type 5 (RV-5); assay: Tissue culture testing, rhinovirus type 5 in HeLa cells; format: cell-based; conditions: Enterovirus, 48 and 72 hours, NA = not active at the standard test conditions, read-out: RV-5: lowest concentration of the compound necessary to cause a 50 percent reduction in cytopathic effect
Procedure: as §1, §2

[6] = test system: rhinovirus type 8 (RV-8); assay: Tissue culture testing, rhinovirus type 8 in HeLa cells; format: cell-based; conditions: Enterovirus, 48 and 72 hours, NA = not active at the standard test conditions, read-out: RV-8: lowest concentration of the compound necessary to cause a 50 percent reduction in cytopathic effect
Procedure: as §1, §2

[7] = test system: rhinovirus type 64 (RV-64); assay: Tissue culture testing, rhinovirus type 64 in HeLa cells; format: cell-based; conditions: Enterovirus, 48 and 72 hours, NA = not active at the standard test conditions, read-out: RV-64: lowest concentration of the compound necessary to cause a 50 percent reduction in cytopathic effect
Procedure: as §1, §2

[8] = test system: Cox A21; assay: Single Oral Dose test in mice challenged IP with Cox A21; format: in vivo, Swiss male mice; conditions: >3.84 significant (95% confidence level)
Procedure: In addition, some of the compounds were tested in animals utilizing the following procedure, hereinafter referred to as the "Single Oral Dose" test. Swiss male mice, 8-12 grams in weight were challenged intraperitoneally (IP) with 0.2 ml of a normally lethal dose, i.e., a virus dose sufficient to cause […].80-100% mortality in infected animals within 10 days of challenge of Cox A21, in phosphate buffered saline containing 1% heat inactivated fetal calf serum. Three hours later mice were treated orally (P.O.) with 0.2 ml of compound suspended in 0.5% hydroxypropyl methylcellulose (Methocel) or with 0.2 ml of 0.5% Methocel containing no compound. […] Mice were observed daily for 7-10 days post-challenge and deaths recorded. A modified Mantel-Haenzel combined chi-square procedure was used to determine significant difference between virus control and treated groups. Chi-square values greater than 3.84 are considered significant (95% confidence level) in this test.

[9] = test system: Coxsackie A21 virus; assay: Continuous Oral Feeding test in mice challenged IP with Coxsackie A21 virus; format: in vivo; conditions: po, 0.06 % in diet, 240 h
Procedure: Some of the compounds were also tested in animals utilizing the following procedure, hereainafter referred to as the "Continuous Oral Feeding" test. Coxsackie A21 virus grown on HeLa cells was administered at a concentration that produces 80 to 100% deaths in mice weighing 8 to 12 grams within 10 days, when the mice are injected (IP) with 0.2 ml of virus preparation. Mice were placed on diets containing test compound dispersed in plain commercially available rodent mash chow at a concentration of 0.06% (weight percent) on day 0. On day 1 the mice were challenged with the virus preparation, 0.2 ml/mouse, (IP). Deaths in both control and experimental groups were recorded for the 10 days and the results analyzed by a chi-square (.chi.^2) test. Chi-square values greater than 3.84 indicate the compound is active (95% confidence level).

[10] = test system: Hanks Untyped; assay: Inhibition of cytopathic effect in WI-38 cell culture tubes, Hanks Untyped; format: cell-based, rhinovirus; conditions: Enterovirus; 12.5 μg/ml; WI-38 cells; read-out: Inhibition grade, Hanks Untyped
Procedure: (§3) The test compound was dissolved in an appropriate solvent (generally dimethyl sulfoxide) and incubated at 56° C. for at least 15 minutes and this solution was then used to prepare various test solutions having the desired concentration of test compound in preheated WI maintenance medium (49% Eagles, 49% medium 199, 2% fetal calf serum and antibiotics).
(§4) Triplicate cell culture tubes (WI-38 human embryonic lung cell culture tubes) were fed with 1 ml of medium containing the compound at specified concentrations and inoculated with 3-300 TCID50 (3-300 times the tissue culture infective dose 50, i.e., the dose required to infect 50% of the cell cultures tested). Simultaneous viral titrations were performed. The tissue cultures were supplemented with fresh medium when necessary (around 3-4 days) until viral titrations were completed.
(§5) The cell culture tubes were examined dialy for cytopathic effect. […] Comparisons were made at that time with the percentage of cell sheet destruction in tubes containing virus compound mixtures. Observed differences of 75% or more were graded "+", 74-50% as "±", and less than 50% as "-" inhibition.

[11] = test system: Rhinovirus Type 4; assay: Inhibition of cytopathic effect in WI-38 cell culture tubes, rhinovirus type 4; format: cell-based; conditions: Enterovirus; 12.5 μg/ml; WI-38 cells; read-out: Inhibition grade, Rhinovirus Type 4
Procedure: as §3, §4, §5

[12] = test system: Rhinovirus Type 6; assay: Inhibition of cytopathic effect in WI-38 cell culture tubes, rhinovirus type 6; format: cell-based; conditions: Enterovirus; 12.5 μg/ml; WI-38 cells; read-out: Inhibition grade, Rhinovirus Type 6
Procedure: as §3, §4, §5

[13] = test system: Rhinovirus Type 8; assay: Inhibition of cytopathic effect in WI-38 cell culture tubes, rhinovirus type 8; format: cell-based; conditions: Enterovirus; 12.5 μg/ml; WI-38 cells; read-out: Inhibition grade, Rhinovirus Type 8
Procedure: as §3, §4, §5

[14] = test system: Rhinovirus Type 10; assay: Inhibition of cytopathic effect in WI-38 cell culture tubes, rhinovirus type 10; format: cell-based; conditions: Enterovirus; 12.5 μg/ml; WI-38 cells; read-out: Inhibition grade, Rhinovirus Type 10
Procedure: as §3, §4, §5

[15] = test system: Rhinovirus Type 13; assay: Inhibition of cytopathic effect in WI-38 cell culture tubes, rhinovirus type 13; format: cell-based; conditions: Enterovirus; 12.5 μg/ml; WI-38 cells; read-out: Inhibition grade, Rhinovirus Type 13
Procedure: as §3, §4, §5

[16] = test system: Rhinovirus Type 17; assay: Inhibition of cytopathic effect in WI-38 cell culture tubes, rhinovirus type 17; format: cell-based; conditions: Enterovirus; 12.5 μg/ml; WI-38 cells; read-out: Inhibition grade, Rhinovirus Type 17
Procedure: as §3, §4, §5

[17] = test system: Rhinovirus Type 19; assay: Inhibition of cytopathic effect in WI-38 cell culture tubes, rhinovirus type 19; format: cell-based; conditions: Enterovirus; 12.5 μg/ml; WI-38 cells; read-out: Inhibition grade, Rhinovirus Type 19
Procedure: as §3, §4, §5

[18] = test system: Rhinovirus Type 21; assay: Inhibition of cytopathic effect in WI-38 cell culture tubes, rhinovirus type 21; format: cell-based; conditions: Enterovirus; 12.5 μg/ml; WI-38 cells; read-out: Inhibition grade, Rhinovirus Type 21
Procedure: as §3, §4, §5

[19] = test system: Rhinovirus Type 29; assay: Inhibition of cytopathic effect in WI-38 cell culture tubes, rhinovirus type 29; format: cell-based; conditions: Enterovirus; 12.5 μg/ml; WI-38 cells; read-out: Inhibition grade, Rhinovirus Type 29
Procedure: as §3, §4, §5

[20] = test system: Rhinovirus Type 39; assay: Inhibition of cytopathic effect in WI-38 cell culture tubes, rhinovirus type 39; format: cell-based; conditions: Enterovirus; 12.5 μg/ml; WI-38 cells; read-out: Inhibition grade, Rhinovirus Type 39
Procedure: as §3, §4, §5

[21] = test system: Rhinovirus Type 56; assay: Inhibition of cytopathic effect in WI-38 cell culture tubes, rhinovirus type 56; format: cell-based; conditions: Enterovirus; 12.5 μg/ml; WI-38 cells; read-out: Inhibition grade, Rhinovirus Type 56
Procedure: as §3, §4, §5

[22] = test system: Rhinovirus Type 58; assay: Inhibition of cytopathic effect in WI-38 cell culture tubes, rhinovirus type 58; format: cell-based; conditions: Enterovirus; 12.5 μg/ml; WI-38 cells; read-out: Inhibition grade, Rhinovirus Type 58
Procedure: as §3, §4, §5

[23] = test system: Rhinovirus Type 59; assay: Inhibition of cytopathic effect in WI-38 cell culture tubes, rhinovirus type 59; format: cell-based; conditions: Enterovirus; 12.5 μg/ml; WI-38 cells; read-out: Inhibition grade, Rhinovirus Type 59
Procedure: as §3, §4, §5

[24] = test system: Rhinovirus Type 60; assay: Inhibition of cytopathic effect in WI-38 cell culture tubes, rhinovirus type 60; format: cell-based; conditions: Enterovirus; 12.5 μg/ml; WI-38 cells; read-out: Inhibition grade, Rhinovirus Type 60
Procedure: as §3, §4, §5

[25] = test system: Rhinovirus Type 64; assay: Inhibition of cytopathic effect in WI-38 cell culture tubes, rhinovirus type 64; format: cell-based; conditions: Enterovirus; 12.5 μg/ml; WI-38 cells; read-out: Inhibition grade, Rhinovirus Type 64
Procedure: as §3, §4, §5

[26] = test system: Rhinovirus Type 68; assay: Inhibition of cytopathic effect in WI-38 cell culture tubes, rhinovirus type 68; format: cell-based; conditions: Enterovirus; 12.5 μg/ml; WI-38 cells; read-out: Inhibition grade, Rhinovirus Type 68
Procedure: as §3, §4, §5

[27] = test system: Rhinovirus Type 74; assay: Inhibition of cytopathic effect in WI-38 cell culture tubes, rhinovirus type 74; format: cell-based; conditions: Enterovirus; 12.5 μg/ml; WI-38 cells; read-out: Inhibition grade, Rhinovirus Type 74
Procedure: as §3, §4, §5

[28] = test system: Rhinovirus Type 75; assay: Inhibition of cytopathic effect in WI-38 cell culture tubes, rhinovirus type 75; format: cell-based; conditions: Enterovirus; 12.5 μg/ml; WI-38 cells; read-out: Inhibition grade, Rhinovirus Type 75
Procedure: as §3, §4, §5

[29] = test system: Rhinovirus Type 81; assay: Inhibition of cytopathic effect in WI-38 cell culture tubes, rhinovirus type 81; format: cell-based; conditions: Enterovirus; 12.5 μg/ml; WI-38 cells; read-out: Inhibition grade, Rhinovirus Type 81
Procedure: as §3, §4, §5

CS(=O)(=O)c1ccc(Oc2ccc(C#N)cc2)nc1 [Example 30, 4-((5-(methylsulfonyl)-2-pyridinyl)oxy)benzonitrile]
MCC [1]: > 100 µg/mL | EC50 [2]: 50 µg/mL (≈ 182 µM) | EC50 [3]: 50 µg/mL (≈ 182 µM) | EC50 [4]: 6.25 µg/mL (≈ 22.8 µM) | EC50 [5]: 50 µg/mL (≈ 182 µM) | EC50 [6]: 25 µg/mL (≈ 91.1 µM) | EC50 [7]: 25 µg/mL (≈ 91.1 µM) | Single Oral Dose X^2 (chi-square, deaths vs virus control) ([8]; 600 mg/kg P.O. 3 h after IP challenge): 30.960 | Continuous Oral Feeding X^2 (chi-square, deaths vs control) [9]: 24.144

CS(=O)(=O)c1ccc(Oc2ccc(Cl)cc2)nc1 [Example 32, 2-(4-chlorophenoxy)-5-(methylsulfonyl)pyridine]
MCC [1]: 50 µg/mL | EC50 [2]: 1.25 µg/mL (≈ 4.41 µM) | EC50 [3]: 2.5 µg/mL (≈ 8.81 µM) | EC50 [4]: 3.12 µg/mL (≈ 11 µM) | EC50 [7]: 1.25 µg/mL (≈ 4.41 µM) | Single Oral Dose X^2 (chi-square, deaths vs virus control) ([8]; 200 mg/kg P.O. 3 h after IP challenge): 52.866 | inhibition at 12.5 µg/mL [10]: ≥ 75% | inhibition at 12.5 µg/mL [11]: ≥ 75% | inhibition at 12.5 µg/mL [12]: 50 to 74% | inhibition at 12.5 µg/mL [13]: < 50% | inhibition at 12.5 µg/mL [14]: ≥ 75% | inhibition at 12.5 µg/mL [15]: < 50% | inhibition at 12.5 µg/mL [16]: ≥ 75% | inhibition at 12.5 µg/mL [17]: ≥ 75% | inhibition at 12.5 µg/mL [18]: 50 to 74% | inhibition at 12.5 µg/mL [19]: ≥ 75% | inhibition at 12.5 µg/mL [20]: < 50% | inhibition at 12.5 µg/mL [21]: ≥ 75% | inhibition at 12.5 µg/mL [22]: ≥ 75% | inhibition at 12.5 µg/mL [23]: ≥ 75% | inhibition at 12.5 µg/mL [24]: ≥ 75% | inhibition at 12.5 µg/mL [25]: ≥ 75% | inhibition at 12.5 µg/mL [26]: ≥ 75% | inhibition at 12.5 µg/mL [27]: ≥ 75% | inhibition at 12.5 µg/mL [28]: < 50% | inhibition at 12.5 µg/mL [29]: 50 to 74%
